Reference: US12102637B2, “Pharmaceutical formulations for treating endometriosis, uterine fibroids, polycystic ovary syndrome or adenomyosis” (AbbVie Inc., priority 2017, dated 2024)

Assays:
[1] = target: T1, organic anion transporting polypeptide (OATP)1B1 (Homo sapiens, UniProt Q9Y6L6); assay: Elagolix as substrate of OATP1B1
T1 sequence (Q9Y6L6 1-691): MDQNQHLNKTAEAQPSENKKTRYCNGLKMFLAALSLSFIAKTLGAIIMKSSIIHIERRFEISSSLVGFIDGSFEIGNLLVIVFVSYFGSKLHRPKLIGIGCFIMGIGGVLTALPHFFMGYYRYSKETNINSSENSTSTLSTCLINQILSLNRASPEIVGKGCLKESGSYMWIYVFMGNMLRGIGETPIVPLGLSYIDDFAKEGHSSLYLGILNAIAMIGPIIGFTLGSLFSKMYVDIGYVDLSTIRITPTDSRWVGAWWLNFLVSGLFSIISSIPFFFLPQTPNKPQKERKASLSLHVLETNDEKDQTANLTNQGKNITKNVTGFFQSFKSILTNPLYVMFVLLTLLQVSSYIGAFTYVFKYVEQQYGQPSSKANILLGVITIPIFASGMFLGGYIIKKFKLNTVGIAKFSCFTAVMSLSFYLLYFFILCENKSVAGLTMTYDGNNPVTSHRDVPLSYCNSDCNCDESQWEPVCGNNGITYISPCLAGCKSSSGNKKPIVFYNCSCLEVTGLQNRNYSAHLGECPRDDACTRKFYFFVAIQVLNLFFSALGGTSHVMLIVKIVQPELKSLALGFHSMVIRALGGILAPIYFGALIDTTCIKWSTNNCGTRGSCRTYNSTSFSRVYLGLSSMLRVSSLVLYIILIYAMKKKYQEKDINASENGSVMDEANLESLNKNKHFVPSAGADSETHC
Excerpt: (§1) Elagolix is a substrate of CYP3A, P-gp, and organic anion transporting polypeptide (OATP)1B1. Clinically meaningful interactions are not expected when elagolix is co-administered with drugs that inhibit CYP3A or P-gp.

[2] = target: efflux transporter P-glycoprotein (P-gp) (Homo sapiens, UniProt P08183); assay: Elagolix as inhibitor and substrate of P-gp
efflux transporter P-glycoprotein (P-gp), sequence (P08183 whole entry): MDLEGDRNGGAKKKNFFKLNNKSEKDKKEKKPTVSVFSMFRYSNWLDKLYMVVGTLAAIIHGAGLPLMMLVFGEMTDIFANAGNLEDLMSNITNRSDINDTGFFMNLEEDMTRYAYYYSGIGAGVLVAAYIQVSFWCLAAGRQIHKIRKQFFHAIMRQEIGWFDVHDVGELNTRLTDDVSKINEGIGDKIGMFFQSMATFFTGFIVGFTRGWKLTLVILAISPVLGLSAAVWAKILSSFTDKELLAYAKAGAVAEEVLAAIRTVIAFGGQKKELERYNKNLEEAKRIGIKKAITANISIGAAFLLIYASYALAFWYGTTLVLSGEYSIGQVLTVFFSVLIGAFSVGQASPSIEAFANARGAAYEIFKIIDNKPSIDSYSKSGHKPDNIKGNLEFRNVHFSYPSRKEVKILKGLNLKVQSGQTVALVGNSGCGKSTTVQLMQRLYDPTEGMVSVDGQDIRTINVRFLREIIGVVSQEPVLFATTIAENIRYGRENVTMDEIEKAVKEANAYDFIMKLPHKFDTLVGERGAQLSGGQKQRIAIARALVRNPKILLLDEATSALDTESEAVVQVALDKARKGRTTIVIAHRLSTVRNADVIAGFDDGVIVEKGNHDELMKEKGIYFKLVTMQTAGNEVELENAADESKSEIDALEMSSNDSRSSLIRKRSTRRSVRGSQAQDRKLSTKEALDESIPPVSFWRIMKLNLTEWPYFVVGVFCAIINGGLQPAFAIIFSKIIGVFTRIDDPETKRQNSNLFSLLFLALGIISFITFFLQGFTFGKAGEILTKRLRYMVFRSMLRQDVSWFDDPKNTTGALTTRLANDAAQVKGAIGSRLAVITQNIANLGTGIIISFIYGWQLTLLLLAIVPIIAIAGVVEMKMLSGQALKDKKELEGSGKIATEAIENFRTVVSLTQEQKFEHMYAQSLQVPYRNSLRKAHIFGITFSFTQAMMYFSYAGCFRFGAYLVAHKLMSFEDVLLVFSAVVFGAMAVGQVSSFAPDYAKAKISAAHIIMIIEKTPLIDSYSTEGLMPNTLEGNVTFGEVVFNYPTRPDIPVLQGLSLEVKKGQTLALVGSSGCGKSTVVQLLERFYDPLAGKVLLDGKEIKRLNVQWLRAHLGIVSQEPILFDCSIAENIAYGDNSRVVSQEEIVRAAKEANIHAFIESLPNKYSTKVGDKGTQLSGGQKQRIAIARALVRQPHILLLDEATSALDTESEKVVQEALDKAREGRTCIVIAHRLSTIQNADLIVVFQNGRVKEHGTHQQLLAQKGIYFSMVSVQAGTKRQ
Experimental: Elagolix is an inhibitor of efflux transporter P-glycoprotein (P-gp) at 200 mg BID or higher, such as 300 mg BID or 400 mg QD or 600 mg QD. Co-administration with ELAGOLIX 200 mg BID may increase plasma concentration of drugs that are substrates of P-gp.
as §1

[3] = system: bone mineral density (BMD); assay: Bone mineral density by DXA (lumbar spine, Z-score) in placebo-controlled and extension studies; format: in vivo, human; conditions: for patients with Z-score below the normal lower bound of −2.0: following 12 months of treatment
Experimental: In the placebo-controlled and extension clinical studies, BMD was measured by DXA. Changes observed in BMD at other anatomical sites (femoral neck, total hip) were generally smaller than lumbar spine.

QTc interval = assay: Thorough QT study; format: in vivo, human; conditions: up to 1200 mg; 17- to 23-fold therapeutic concentrations; active control moxifloxacin 400 mg
Experimental: The effect of elagolix (up to 1200 mg) on QTc interval was evaluated in an active-controlled (moxifloxacin 400 mg) thorough QT study.

[4] = system: women treated in Studies EM-1 and EM-2; assay: Suicidal ideation, suicidal behavior and mood disorders in Studies EM-1 and EM-2; format: in vivo, human
Excerpt: Patients with depressive symptoms should be evaluated to determine whether the risks of continued therapy outweigh the benefits. Patients with new or worsening depression, anxiety or other mood changes should be referred to a mental health professional, as appropriate. Patients with suicidal ideation and behavior should seek immediate medical attention. Benefits and risks of continuing elagolix should be revaluated if such events occur and optionally, elagolix should be stopped with worsening or serious depression, anxiety, mood changes or suicidal ideation.
In the placebo-controlled trials (Studies EM-1 and EM-2), elagolix was associated with adverse mood changes, particularly in those with a history of depression.

[5] = Pharmacokinetic properties of elagolix in healthy subjects; conditions: human, in vivo
[6] = Drug interaction studies: elagolix in the presence of co-administered drug; format: in vivo, human; conditions: for AUC Ratio (co-administration vs elagolix alone) / Cmax Ratio (co-administration vs elagolix alone): elagolix 150 mg single dose
Experimental: Drug interaction studies were performed with elagolix and other drugs that are likely to be co-administered and with drugs commonly used as probes for pharmacokinetic interactions.

[7] = system: luteinizing hormone (LH) and follicle-stimulating hormone (FSH); assay: Suppression of LH and FSH levels; format: in vivo, human; conditions: begins within hours of administration, reversible upon discontinuation
Excerpt: (I) Elagolix is an orally administered, short-acting, selective, non-peptide small molecule GnRH receptor antagonist that blocks endogenous GnRH signaling by binding competitively to GnRH receptors in the pituitary gland. […] LH and FSH suppression begins within hours of administration and is readily reversible upon discontinuation of elagolix.

[8] = Mutagenicity studies, in vitro and in vivo test systems
Excerpt: Mutagenicity studies have been performed with elagolix using in vitro and in vivo test systems.

rats = assay: Fertility and repeat-dose studies in rats; format: in vivo, rat
Excerpt: Based on pharmacologic actions of elagolix in humans a reversible effect on fertility may be expected in women.

[9] = Pharmacokinetics in hepatic impairment; format: in vivo, human
Excerpt: Elagolix exposures (Cmax and AUC) are similar between women with normal hepatic function and women with mild hepatic impairment. Elagolix exposures in women with moderate and severe hepatic impairment are approximately 3-fold and 7-fold, respectively, of exposures from women with normal hepatic function.
Compared to women with normal liver function, those with moderate hepatic impairment had approximately 3-fold higher elagolix exposures and those with severe hepatic impairment had approximately 7-fold higher elagolix exposures. Because of these increased exposures and risk for bone loss: Elagolix 150 mg once daily is recommended for women with moderate hepatic impairment (Child-Pugh B) with the duration of treatment limited to 6 months. Use of elagolix 200 mg twice daily is not recommended for women with moderate hepatic impairment. Elagolix is contraindicated in women with severe hepatic impairment (Child-Pugh C).

pKa of elagolix = format: physicochemical
[10] = Elagolix 150 mg QD, On Treatment Month 6
[11] = Elagolix 150 mg QD, On Treatment Month 12
[12] = Elagolix 200 mg BID, On Treatment Month 6
[13] = Elagolix 200 mg BID, On Treatment Month 12
[14] = Ketoconazole 400 mg once daily, N 11
[15] = Rifampin 600 mg single dose, N 12

Question: With `COc1cccc(-c2c(C)n(Cc3c(F)cccc3C(F)(F)F)c(=O)n(C[C@H](NCCCC(=O)O)c3ccccc3)c2=O)c1F` [Compound A, 4-((R)-2-[5-(2-fluoro-3-methoxy-phenyl)-3-(2-fluoro-6-trifluoromethyl-benzyl)-4-methyl-2,6-dioxo-3,6-dihydro-2H-pyrimidin-1-yl]-1-phenyl-ethylamino)-butyric acid] as the compound, how does the “substrate of organic anion transporting polypeptide (OATP)1B1” value [1] read?
Answer: substrate

Question: What about the “substrate of P-gp” value [2] of the same compound?
Answer: substrate

Question: What about the “inhibition of efflux transporter P-glycoprotein (P-gp)” value ([2]; at 200 mg BID or higher) of the same compound?
Answer: inhibitor

Question: And the “% Subjects Z-score ≤ −1.5 of Lumbar Spine” value [3, 10]?
Answer: 0.8%

Question: What about the “Mean Percent Change From Baseline in Bone Mineral Density of Lumbar Spine” value (from here on “Mean Percent Change From Baseline”) [3, 10] of the same compound?
Answer: −0.52%

Question: And the “% Subjects Z-score ≤ −1.5 of Lumbar Spine” value [3, 11]?
Answer: 1.3%

Question: And the “Mean Percent Change From Baseline” value [3, 11]?
Answer: −0.87%

Question: What about the “% Subjects Z-score ≤ −1.5 of Lumbar Spine” value [3, 12] of the same compound?
Answer: 4.1%

Question: What about the “Mean Percent Change From Baseline” value [3, 12] of the same compound?
Answer: −2.54%

Question: And the “% Subjects Z-score ≤ −1.5 of Lumbar Spine” value [3, 13]?
Answer: 5.1%

Question: What about the “Mean Percent Change From Baseline” value [3, 13] of the same compound?
Answer: −3.76%

Question: What about the “BMD after stopping treatment” value ([3]; both elagolix treatment groups, lumbar spine, total hip and femoral neck, post-treatment months 6 and 12) of the same compound?
Answer: progressive recovery of BMD

Question: What about the “patients with Z-score below the normal lower bound of −2.0” value ([3]; 150 mg daily dose) of the same compound?
Answer: no patient

Question: What about the “patients with Z-score below the normal lower bound of −2.0” value ([3]; 200 mg BID dose) of the same compound?
Answer: less than 1%

Question: What about the “Effect on QTc interval” value (QTc interval) of the same compound?
Answer: does not prolong the QTc interval

Question: And the “Completed Suicide, %” value ([4]; 150 mg Once Daily (N = 475))?
Answer: 0.2%

Question: And the “Depressed Mood, depression, depressive symptoms and or tearfulness, %” value ([4]; 150 mg Once Daily (N = 475))?
Answer: 2.7%

Question: What about the “Mood altered, mood swings, %” value ([4]; 150 mg Once Daily (N = 475)) of the same compound?
Answer: 5.7%

Question: And the “Suicidal ideation, %” value ([4]; 150 mg Once Daily (N = 475))?
Answer: 0.2%

Question: What about the “Depressed Mood, depression, depressive symptoms and or tearfulness, %” value ([4]; 200 mg Twice Daily (N = 477)) of the same compound?
Answer: 6.1%

Question: And the “Mood altered, mood swings, %” value ([4]; 200 mg Twice Daily (N = 477))?
Answer: 5.2%

Question: And the “Suicidal ideation, %” value ([4]; 200 mg Twice Daily (N = 477))?
Answer: 0.2%

Question: And the “incidence of depression and mood changes” value ([4]; vs placebo)?
Answer: higher incidence of depression and mood changes compared to placebo

Question: What about the “Major route of elimination” value [5] of the same compound?
Answer: Hepatic metabolism

Question: And the “AUC Ratio (co-administration vs elagolix alone)” value (“AUC Ratio” for short) [6, 14]?
Answer: 2.20

Question: And the “Cmax Ratio (co-administration vs elagolix alone)” value (from here on “Cmax Ratio”) [6, 14]?
Answer: 1.77

Question: What about the “AUC Ratio” value ([6]; Rifampin 600 mg once daily) of the same compound?
Answer: 1.65

Question: And the “Cmax Ratio” value ([6]; Rifampin 600 mg once daily)?
Answer: 2.00

Question: What about the “AUC Ratio” value [6, 15] of the same compound?
Answer: 5.58

Question: And the “Cmax Ratio” value [6, 15]?
Answer: 4.37

Question: What about the “direction of the change in AUC of elagolix” value ([6]; concomitant rifampin) of the same compound?
Answer: ↑ elaolix

Question: And the “LH and FSH levels” value [7]?
Answer: dose-dependent suppression

Question: And the “mutagenic or clastogenic potential” value [8]?
Answer: no evidence of a mutagenic or clastogenic potential

Question: And the “effect in fertility study” value (rats; doses 50, 150, 300 mg/kg/day)?
Answer: no effect

Question: And the “ovarian findings in repeat-dose study” value (rats; doses 600, 800 mg/kg/day)?
Answer: involution and a decrease in corpora lutea in ovaries

Question: What about the “exposures (Cmax and AUC) vs normal hepatic function” value ([9]; mild hepatic impairment) of the same compound?
Answer: similar

Question: And the “exposures vs normal hepatic function” value ([9]; moderate hepatic impairment)?
Answer: approximately 3 fold

Question: And the “exposures vs normal hepatic function” value ([9]; severe hepatic impairment, listed as Elagolix)?
Answer: ~7 fold

Question: What about the “exposures vs normal hepatic function” value ([9]; severe hepatic impairment, listed as elagolix) of the same compound?
Answer: approximately 7 fold

Question: And the pKa (pKa of elagolix)?
Answer: ~7.89
